{"source": "patent US10787442B2", "about": "“Modulators of indoleamine 2,3-dioxygenase” (GLAXOSMITHKLINE INTELLECTUAL PROPERTY DEVELOPMENT LIMITED, priority 2016, dated 2020)", "key": {"[1]": {"system": "human peripheral blood mononuclear cells (PBMC)", "experiment": "PBMC cytotoxicity assay (CellTiter-Glo)", "format": "cell-based", "conditions": "cytotoxicity in stimulated PBMC, recorded as pCC50"}, "[2]": {"target": "indoleamine 2, 3-dioxygenase (IDO1) (Homo sapiens, UniProt P14902)", "sequence (P14902 whole entry)": "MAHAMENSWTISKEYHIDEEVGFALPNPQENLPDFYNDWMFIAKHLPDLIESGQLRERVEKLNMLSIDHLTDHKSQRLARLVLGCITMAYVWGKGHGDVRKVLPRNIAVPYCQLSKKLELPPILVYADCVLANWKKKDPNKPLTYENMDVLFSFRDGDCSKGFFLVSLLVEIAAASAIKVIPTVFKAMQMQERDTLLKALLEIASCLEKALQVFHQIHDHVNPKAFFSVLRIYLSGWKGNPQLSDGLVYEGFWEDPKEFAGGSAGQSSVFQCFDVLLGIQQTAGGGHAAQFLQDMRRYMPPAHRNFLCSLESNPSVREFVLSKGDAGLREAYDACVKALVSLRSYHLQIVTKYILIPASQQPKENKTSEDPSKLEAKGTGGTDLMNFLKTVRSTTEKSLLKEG", "experiment": "IDO1 HeLa RapidFire MS Assay (kynurenine by mass spectrometry)", "format": "cell-based", "conditions": "HeLa cells stimulated with IFN-γ, 2 days; recorded as pIC50; read-out: IDO1 HeLa PXC50 (converted)", "protocol": "IDO1 HeLa RapidFire MS Assay\nCompounds of the present invention were tested via high-throughput cellular assays utilizing detection of kynurenine via mass spectrometry and cytotoxicity as end-points. […] Compounds with IDO1 inhibitory properties decreased the amount of kynurenine produced by the cells via the tryptophan catabolic pathway. Cellular toxicity due to the effect of compound treatment was measured using CellTiter-Glo® reagent (CTG) (Promega Corporation, Madison, Wis.), which is based on luminescent detection of ATP, an indicator of metabolically active cells.\nIn preparation for the assays, test compounds were serially diluted 3-fold in DMSO from a typical top concentration of 1 mM or 5 mM and plated at 0.5 μL in 384-well, polystyrene, clear bottom, tissue culture treated plates with lids (Greiner Bio-One, Kremsmünster, Austria) to generate 11-point dose response curves. Low control wells (0% kynurenine or 100% cytotoxicity) contained either 0.5 μL of DMSO in the presence of unstimulated (−IFN-γ) HeLa cells for the mass spectrometry assay or 0.5 μL of DMSO in the absence of cells for the cytotoxicity assay, and high control wells (100% kynurenine or 0% cytotoxicity) contained 0.5 μL of DMSO in the presence of stimulated (+IFN-γ) HeLa cells for both the mass spectrometry and cytotoxicity assays.\nFrozen stocks of HeLa cells were washed and recovered in DMEM high glucose medium with HEPES (Thermo Fisher Scientific, Inc., Waltham, Mass.) supplemented with 10% v/v certified fetal bovine serum (FBS) (Thermo Fisher Scientific, Inc., Waltham, Mass.), and 1× penicillin-streptomycin antibiotic solution (Thermo Fisher Scientific, Inc., Waltham, Mass.). The cells were diluted to 100,000 cells/mL in the supplemented DMEM medium. 50 μL of either the cell suspension, for the mass spectrometry assay, or medium alone, for the cytotoxicity assay, were added to the low control wells, on the previously prepared 384-well compound plates, resulting in 5,000 cells/well or 0 cells/well respectively. IFN-γ was added to the remaining cell suspension at a final concentration of 10 nM, and 50 μL of the stimulated cells were added to all remaining wells on the 384-well compound plates. The plates, with lids, were then placed in a 37° C., 5% CO2 humidified incubator for 2 days.\nFollowing incubation, the 384-well plates were removed from the incubator and allowed to equilibrate to room temperature for 30 minutes. For the cytotoxicity assay, CellTiter-Glo® was prepared according to the manufacturer's instructions, and 10 μL were added to each plate well. After a twenty minute incubation at room temperature, luminescence was read on an EnVision® Multilabel Reader (PerkinElmer Inc., Waltham, Mass.). For the mass spectrometry assay, 10 μL of supernatant from each well of the compound-treated plates were added to 40 μL of acetonitrile, containing 10 μM of an internal standard for normalization, in 384-well, polypropylene, V-bottom plates (Greiner Bio-One, Kremsmünster, Austria) to extract the organic analytes. Following centrifugation at 2000 rpm for 10 minutes, 10 μL from each well of the acetonitrile extraction plates were added to 90 μL of sterile, distilled H2O in 384-well, polypropylene, V-bottom plates for analysis of kynurenine and the internal standard on the RapidFire 300 (Agilent Technologies, Santa Clara, Calif.) and 4000 QTRAP MS (SCIEX, Framingham, Mass.). MS data were integrated using Agilent Technologies' RapidFire Integrator software, and data were normalized for analysis as a ratio of kynurenine to the internal standard."}}}
{"molecule": "CC(C)CN(c1ncc([C@H](C)CC(=O)O)cc1Nc1ccc(Cl)cn1)C1CCOCC1", "note": "[Example 6, (R)-3-(5-((5-chloropyridin-2-yl)amino)-6-(isobutyl(tetrahydro-2H-pyran-4-yl)amino)pyridin-3-yl)butanoic acid]", "values": [{"measurement": "PBMC_TOX PXC50", "setting": "[1]", "value": "<5.0"}, {"measurement": "IC50", "setting": "[2]", "value": 7.94, "unit": "nM"}]}
